{"source": "paper PMC2606621", "about": "(Journal of neurochemistry, 2008)", "key": {"[1]": {"molecular_target": "cannabinoid CB1 receptor (Rattus norvegicus, UniProt P20272)", "sequence (P20272 whole entry)": "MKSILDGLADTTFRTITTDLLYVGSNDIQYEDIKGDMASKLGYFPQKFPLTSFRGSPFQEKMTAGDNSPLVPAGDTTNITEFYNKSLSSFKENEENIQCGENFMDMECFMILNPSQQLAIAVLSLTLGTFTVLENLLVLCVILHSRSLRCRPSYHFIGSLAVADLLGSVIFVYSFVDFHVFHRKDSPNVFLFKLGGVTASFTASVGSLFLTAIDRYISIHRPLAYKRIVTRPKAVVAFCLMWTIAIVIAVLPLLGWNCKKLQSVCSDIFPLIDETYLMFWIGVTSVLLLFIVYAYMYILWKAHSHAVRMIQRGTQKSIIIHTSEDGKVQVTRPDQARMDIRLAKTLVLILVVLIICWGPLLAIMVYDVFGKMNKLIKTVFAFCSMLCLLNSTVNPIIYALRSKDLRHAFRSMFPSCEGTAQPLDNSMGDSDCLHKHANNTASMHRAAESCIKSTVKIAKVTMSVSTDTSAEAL", "assay": "CB1 receptor binding assay", "assay_type": "in vivo", "details": "for effect on Bmax of the CB1 receptor: imipramine alone"}, "[2]": {"tested_on": "endocannabinoids AEA and 2-AG", "assay": "Plasma endocannabinoid content", "assay_type": "in vivo, rat", "details": "imipramine 10 mg/kg, 21 days; p > 0.05"}, "[3]": {"tested_on": "endocannabinoids AEA and 2-AG", "assay": "Brain tissue endocannabinoid content", "details": "imipramine alone; any brain region examined"}, "[4]": {"molecular_target": "T1, fatty acid amide hydrolase (FAAH) (Rattus norvegicus, UniProt P97612)", "T1 sequence (P97612 1-579)": "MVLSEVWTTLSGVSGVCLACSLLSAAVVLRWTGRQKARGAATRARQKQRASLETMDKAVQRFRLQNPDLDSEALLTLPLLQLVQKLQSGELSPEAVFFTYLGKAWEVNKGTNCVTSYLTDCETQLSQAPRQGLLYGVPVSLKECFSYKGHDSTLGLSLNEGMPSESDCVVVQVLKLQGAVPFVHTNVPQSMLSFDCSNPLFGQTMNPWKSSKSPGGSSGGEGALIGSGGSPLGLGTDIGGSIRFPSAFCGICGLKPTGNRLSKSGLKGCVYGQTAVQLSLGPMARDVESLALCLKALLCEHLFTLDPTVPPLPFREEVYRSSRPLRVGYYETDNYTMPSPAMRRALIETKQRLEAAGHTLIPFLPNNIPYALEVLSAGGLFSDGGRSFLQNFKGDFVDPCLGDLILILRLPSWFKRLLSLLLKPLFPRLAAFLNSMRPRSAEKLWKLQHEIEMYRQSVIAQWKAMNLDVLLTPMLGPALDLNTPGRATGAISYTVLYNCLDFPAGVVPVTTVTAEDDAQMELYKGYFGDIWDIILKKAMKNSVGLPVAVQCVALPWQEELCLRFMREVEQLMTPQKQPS", "assay": "Fatty acid amide hydrolase activity assay", "assay_type": "in vivo", "details": "for effect on Vmax of FAAH: combination of CUS and imipramine, p < 0.05; for Km: read-out: binding affinity (Km) of fatty acid amide hydrolase for anandamide"}, "[5]": {"tested_on": "CB1 receptor", "details": "ref Hill et al., cited from earlier work"}}, "note": "Where two headings read alike, the source gives them in different places."}
{"compound": "CN(C)CCCN1c2ccccc2CCc2ccccc21", "note": "[imipramine]", "values": [{"measurement": "effect on Bmax of the CB1 receptor (increase)", "setting": "[1]; amygdala, CUS and imipramine combined, p > 0.05", "value": "did not occur"}, {"measurement": "effect on Bmax of the CB1 receptor", "setting": "[1]; amygdala, p < 0.05", "value": "increase"}, {"measurement": "effect on CB1 receptor agonist binding site density (Bmax)", "setting": "[1]; hippocampus, imipramine 10 mg/kg, 21 days (ANOVA main effect)", "value": "unaffected"}, {"measurement": "effect on Bmax for [3H]CP55940 binding to the CB1 receptor", "setting": "[1]; hypothalamus, CUS and imipramine together vs control, p > 0.05", "value": "no significant difference"}, {"measurement": "effect on CB1 receptor binding site density (Bmax)", "setting": "[1]; midbrain, imipramine 10 mg/kg, 21 days, p < 0.05", "value": "significant reduction"}, {"measurement": "effect on agonist binding site density (Bmax) of the CB1 receptor", "setting": "[1]; prefrontal cortex, imipramine 10 mg/kg, 21 days (ANOVA main effect)", "value": "no effect"}, {"measurement": "effect on Bmax of the CB1 receptor (reduction)", "setting": "[1]; ventral striatum, CUS and imipramine concurrently, p > 0.05", "value": "not seen"}, {"measurement": "effect on Bmax of the CB1 receptor", "setting": "[1]; ventral striatum, p < 0.01", "value": "significant reductions"}, {"measurement": "effect on plasma 2-AG content", "setting": "[2]", "value": "unaffected"}, {"measurement": "effect on plasma AEA content", "setting": "[2]", "value": "neither an effect"}, {"measurement": "effect on tissue AEA content", "setting": "[3]", "value": "no effect"}, {"measurement": "effect on maximal hydrolytic activity (Vmax) of FAAH", "setting": "[4]; imipramine alone, any brain region examined", "value": "no effects"}, {"measurement": "effect on Vmax of FAAH", "setting": "[4]; midbrain", "value": "increased"}, {"measurement": "Km", "setting": "[4]; Amygdala, CON/IMI (no stress, imipramine 10 mg/kg, 21 days)", "value": 0.95, "unit": "nM"}, {"measurement": "Km", "setting": "[4]; Amygdala, CUS/IMI (21 days CUS + imipramine 10 mg/kg)", "value": 0.53, "unit": "nM"}, {"measurement": "Km", "setting": "[4]; Hippocampus, CON/IMI (no stress, imipramine 10 mg/kg, 21 days)", "value": 0.8, "unit": "nM"}, {"measurement": "Km", "setting": "[4]; Hippocampus, CUS/IMI (21 days CUS + imipramine 10 mg/kg)", "value": 0.71, "unit": "nM"}, {"measurement": "Km", "setting": "[4]; Hypothalamus, CON/IMI (no stress, imipramine 10 mg/kg, 21 days)", "value": 0.44, "unit": "nM"}, {"measurement": "Km", "setting": "[4]; Hypothalamus, CUS/IMI (21 days CUS + imipramine 10 mg/kg)", "value": 0.55, "unit": "nM"}, {"measurement": "Km", "setting": "[4]; Midbrain, CON/IMI (no stress, imipramine 10 mg/kg, 21 days)", "value": 0.6, "unit": "nM"}, {"measurement": "Km", "setting": "[4]; Midbrain, CUS/IMI (21 days CUS + imipramine 10 mg/kg)", "value": 0.61, "unit": "nM"}, {"measurement": "Km", "setting": "[4]; Prefrontal Cortex, CON/IMI (no stress, imipramine 10 mg/kg, 21 days)", "value": 0.65, "unit": "nM"}, {"measurement": "Km", "setting": "[4]; Prefrontal Cortex, CUS/IMI (21 days CUS + imipramine 10 mg/kg)", "value": 0.46, "unit": "nM"}, {"measurement": "Km", "setting": "[4]; Ventral Striatum, CON/IMI (no stress, imipramine 10 mg/kg, 21 days)", "value": 0.37, "unit": "nM"}, {"measurement": "Km", "setting": "[4]; Ventral Striatum, CUS/IMI (21 days CUS + imipramine 10 mg/kg)", "value": 0.69, "unit": "nM"}, {"measurement": "effect on Vmax of FAAH", "setting": "[4]; ventral striatum", "value": "increased"}]}
{"compound": "C[C@]12C[C@H](O)[C@H]3[C@@H](CCC4=CC(=O)CC[C@@]43C)[C@@H]1CC[C@@H]2C(=O)CO", "note": "[corticosterone]", "values": [{"measurement": "effect on CB1 receptor binding and protein expression", "setting": "[5]; hippocampus, 21 days administration, absence of stress, 2008a", "value": "comparable reduction"}]}
{"compound": "CNCCCN1c2ccccc2CCc2ccccc21", "note": "[desipramine]", "values": [{"measurement": "effect on CB1 receptor binding", "setting": "[5]; hippocampus of unstressed rats, 2006", "value": "up-regulation"}, {"measurement": "effect on CB1 receptor agonist binding site density", "setting": "[5]; hypothalamus, unstressed rats, chronic treatment, 2006", "value": "increases"}]}
